Experiments:
ryegrass, Italian [1] = experiment: Test A preemergence; assay type: in vivo, Lolium multiflorum
In short: (§1)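 Plants were grown in loam and sand and treated preemergence or postemergence (one- to two-leaf stage, 2–10 cm) with compound in solvent plus surfactant. Response was scored against untreated controls after 10 greenhouse days, where 0 means no effect and 100 complete control.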

blackgrass [2] = experiment: Test A postemergence; assay type: in vivo, Alopecurus myosuroides; settings: postemergence, 10 days; for Blackgrass plant response rating: 125 g ai/ha, 0 to 100 scale, 0 no effect, 100 complete control; for Plant response rating, Blackgrass: 500 g ai/ha, visual injury, 0 to 100 scale (0 no effect, 100 complete control)
In short: as §1

ragweed [3] = experiment: Test A preemergence; assay type: in vivo, Ambrosia artemisiifolia
In short: as §1

foxtail, giant [4] = experiment: Test A preemergence; assay type: in vivo, Setaria faberi
In short: as §1

rice = experiment: Test B flooded paddy test; assay type: in vivo, Oryza sativa; settings: 250 g ai/ha, Flood, 13 days, 0 to 100 scale (0 no effect, 100 complete control)
In short: (§2)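 2-leaf stage; pots flooded 3 cm over soil; compound dosed into paddy water; depth kept constant. Greenhouse, 13 d. Visual rating vs controls, 0 (no effect)–100 (complete control). Dash = no result.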

corn [5] = experiment: Test A preemergence; assay type: in vivo, Zea mays
In short: as §1

ragweed [6] = experiment: Test A postemergence; assay type: in vivo, Ambrosia artemisiifolia; settings: postemergence, 10 days; for Ragweed plant response rating: 125 g ai/ha, 0 to 100 scale, 0 no effect, 100 complete control; for Plant response rating, Ragweed: 500 g ai/ha, visual injury, 0 to 100 scale (0 no effect, 100 complete control)
In short: as §1

kochia [7] = experiment: Test A postemergence; assay type: in vivo, Bassia scoparia; settings: postemergence, 10 days; for Kochia plant response rating: 125 g ai/ha, 0 to 100 scale, 0 no effect, 100 complete control; for Plant response rating, Kochia: 500 g ai/ha, visual injury, 0 to 100 scale (0 no effect, 100 complete control)
In short: as §1

ducksalad = experiment: Test B flooded paddy test; assay type: in vivo, Heteranthera limosa; settings: 250 g ai/ha, Flood, 13 days, 0 to 100 scale (0 no effect, 100 complete control)
In short: as §2

barnyardgrass = experiment: Test B flooded paddy test; assay type: in vivo, Echinochloa crus-galli; settings: 250 g ai/ha, Flood, 13 days, 0 to 100 scale (0 no effect, 100 complete control)
In short: as §2

horseweed = experiment: Test A postemergence; assay type: in vivo, Erigeron canadensis; settings: postemergence, 10 days; for Horseweed plant response rating: 125 g ai/ha, 0 to 100 scale, 0 no effect, 100 complete control; for Plant response rating, Horseweed: 500 g ai/ha, visual injury, 0 to 100 scale (0 no effect, 100 complete control)
In short: as §1

pigweed, palmer [8] = experiment: Test A preemergence; assay type: in vivo, Amaranthus palmeri
In short: as §1

ryegrass, Italian [9] = experiment: Test A postemergence; assay type: in vivo, Lolium multiflorum; settings: postemergence, 10 days; for Ryegrass, Italian plant response rating: 125 g ai/ha, 0 to 100 scale, 0 no effect, 100 complete control; for Plant response rating, Ryegrass, Italian: 500 g ai/ha, visual injury, 0 to 100 scale (0 no effect, 100 complete control)
In short: as §1

foxtail, giant [10] = experiment: Test A postemergence; assay type: in vivo, Setaria faberi; settings: postemergence, 10 days; for Foxtail, Giant plant response rating: 125 g ai/ha, 0 to 100 scale, 0 no effect, 100 complete control; for Plant response rating, Foxtail, Giant: 500 g ai/ha, visual injury, 0 to 100 scale (0 no effect, 100 complete control)
In short: as §1

corn [11] = experiment: Test A postemergence; assay type: in vivo, Zea mays; settings: postemergence, 10 days; for Corn plant response rating: 125 g ai/ha, 0 to 100 scale, 0 no effect, 100 complete control; for Plant response rating, Corn: 500 g ai/ha, visual injury, 0 to 100 scale (0 no effect, 100 complete control)
In short: as §1

kochia [12] = experiment: Test A preemergence; assay type: in vivo, Bassia scoparia
In short: as §1

sedge, umbrella = experiment: Test B flooded paddy test; assay type: in vivo, Cyperus difformis; settings: 250 g ai/ha, Flood, 13 days, 0 to 100 scale (0 no effect, 100 complete control)
In short: as §2

pigweed, palmer [13] = experiment: Test A postemergence; assay type: in vivo, Amaranthus palmeri; settings: postemergence, 10 days; for Pigweed, Palmer plant response rating: 125 g ai/ha, 0 to 100 scale, 0 no effect, 100 complete control; for Plant response rating, Pigweed, Palmer: 500 g ai/ha, visual injury, 0 to 100 scale (0 no effect, 100 complete control)
In short: as §1

wheat [14] = experiment: Test A postemergence; assay type: in vivo, Triticum aestivum; settings: postemergence, 10 days; for Wheat plant response rating: 125 g ai/ha, 0 to 100 scale, 0 no effect, 100 complete control; for Plant response rating, Wheat: 500 g ai/ha, visual injury, 0 to 100 scale (0 no effect, 100 complete control)
In short: as §1

galium = experiment: Test A postemergence; assay type: in vivo, Galium aparine; settings: postemergence, 10 days; for Galium plant response rating: 125 g ai/ha, 0 to 100 scale, 0 no effect, 100 complete control; for Plant response rating, Galium: 500 g ai/ha, visual injury, 0 to 100 scale (0 no effect, 100 complete control)
In short: as §1

oat, wild [15] = experiment: Test A postemergence; assay type: in vivo, Avena fatua; settings: postemergence, 10 days; for Oat, Wild plant response rating: 125 g ai/ha, 0 to 100 scale, 0 no effect, 100 complete control; for Plant response rating, Oat, Wild: 500 g ai/ha, visual injury, 0 to 100 scale (0 no effect, 100 complete control)
In short: as §1

soybean [16] = experiment: Test A postemergence; assay type: in vivo, Glycine max; settings: postemergence, 10 days; for Soybean plant response rating: 125 g ai/ha, 0 to 100 scale, 0 no effect, 100 complete control; for Plant response rating, Soybean: 500 g ai/ha, visual injury, 0 to 100 scale (0 no effect, 100 complete control)
In short: as §1

blackgrass [17] = experiment: Test A preemergence; assay type: in vivo, Alopecurus myosuroides
In short: as §1

goosegrass [18] = experiment: Test A postemergence; assay type: in vivo, Eleusine indica; settings: postemergence, 10 days; for Goosegrass plant response rating: 125 g ai/ha, 0 to 100 scale, 0 no effect, 100 complete control; for Plant response rating, Goosegrass: 500 g ai/ha, visual injury, 0 to 100 scale (0 no effect, 100 complete control)
In short: as §1

wheat [19] = experiment: Test A preemergence; assay type: in vivo, Triticum aestivum
In short: as §1

soybean [20] = experiment: Test A preemergence; assay type: in vivo, Glycine max
In short: as §1

oat, wild [21] = experiment: Test A preemergence; assay type: in vivo, Avena fatua
In short: as §1

goosegrass [22] = experiment: Test A preemergence; assay type: in vivo, Eleusine indica
In short: as §1

[23] = 125 g ai/ha, visual injury after 10 days, 0 to 100 scale, 0 is no effect, 100 is complete control
[24] = 500 g ai/ha, 0 to 100 scale (0 no effect, 100 complete control), 10 days

## CCc1ccc(-n2cnc(C(C)(C)C)n2)cc1C(=O)N1C[C@H](C)Oc2c(Cl)cccc21 [Compound 102]
ryegrass, Italian [1]; [23]
  Plant response rating, Ryegrass, Italian: 80
ryegrass, Italian [1]; [24]
  Plant response rating, Ryegrass, Italian: 100
Blackgrass [2]
  Blackgrass plant response rating: 0
  Plant response rating, Blackgrass: 60
Ragweed [3]; [23]
  Plant response rating, Ragweed: 0
Ragweed [3]; [24]
  Plant response rating, Ragweed: 0
foxtail, giant [4]; [23]
  Plant response rating, Foxtail, Giant: 90
foxtail, giant [4]; [24]
  Plant response rating, Foxtail, Giant: 100
rice
  Plant response rating, Rice: 10
Corn [5]; [23]
  Plant response rating, Corn: 10
Corn [5]; [24]
  Plant response rating, Corn: 20
Ragweed [6]
  Ragweed plant response rating: 20
  Plant response rating, Ragweed: 40
Kochia [7]
  Kochia plant response rating: 90
  Plant response rating, Kochia: 90
ducksalad
  Plant response rating, Ducksalad: 65
barnyardgrass
  Plant response rating, Barnyardgrass: 10
horseweed
  Horseweed plant response rating: 0
  Plant response rating, Horseweed: 0
pigweed, palmer [8]; [23]
  Plant response rating, Pigweed, Palmer: 100
pigweed, palmer [8]; [24]
  Plant response rating, Pigweed, Palmer: 100
ryegrass, Italian [9]
  Ryegrass, Italian plant response rating: 50
  Plant response rating, Ryegrass, Italian: 50
foxtail, giant [10]
  Foxtail, Giant plant response rating: 80
  Plant response rating, Foxtail, Giant: 90
Corn [11]
  Corn plant response rating: 20
  Plant response rating, Corn: 80
Kochia [12]; [23]
  Plant response rating, Kochia: 80
Kochia [12]; [24]
  Plant response rating, Kochia: 100
sedge, umbrella
  Plant response rating, Sedge, Umbrella: 95
pigweed, palmer [13]
  Pigweed, Palmer plant response rating: 90
  Plant response rating, Pigweed, Palmer: 100
Wheat [14]
  Wheat plant response rating: 10
  Plant response rating, Wheat: 30
galium
  Galium plant response rating: 50
  Plant response rating, Galium: 100
oat, wild [15]
  Oat, Wild plant response rating: 10
  Plant response rating, Oat, Wild: 60
Soybean [16]
  Soybean plant response rating: 100
  Plant response rating, Soybean: 100
Blackgrass [17]; [23]
  Plant response rating, Blackgrass: 30
Blackgrass [17]; [24]
  Plant response rating, Blackgrass: 50
Goosegrass [18]
  Goosegrass plant response rating: 80
  Plant response rating, Goosegrass: 80
Wheat [19]; [23]
  Plant response rating, Wheat: 0
Wheat [19]; [24]
  Plant response rating, Wheat: 0
Soybean [20]; [23]
  Plant response rating, Soybean: 50
Soybean [20]; [24]
  Plant response rating, Soybean: 100
oat, wild [21]; [23]
  Plant response rating, Oat, Wild: 40
oat, wild [21]; [24]
  Plant response rating, Oat, Wild: 80
Goosegrass [22]; [23]
  Plant response rating, Goosegrass: 100
Goosegrass [22]; [24]
  Plant response rating, Goosegrass: 100

## CCc1ccc(-n2cnc(C3CC3)n2)cc1C(=O)N1C[C@H](C)Oc2c(Cl)cccc21 [Compound 103]
ryegrass, Italian [1]; [23]
  Plant response rating, Ryegrass, Italian: 80
ryegrass, Italian [1]; [24]
  Plant response rating, Ryegrass, Italian: 90
Blackgrass [2]
  Blackgrass plant response rating: 60
  Plant response rating, Blackgrass: 90
Ragweed [3]; [23]
  Plant response rating, Ragweed: 0
Ragweed [3]; [24]
  Plant response rating, Ragweed: 0
foxtail, giant [4]; [23]
  Plant response rating, Foxtail, Giant: 100
foxtail, giant [4]; [24]
  Plant response rating, Foxtail, Giant: 100
rice
  Plant response rating, Rice: 10
Corn [5]; [23]
  Plant response rating, Corn: 20
Corn [5]; [24]
  Plant response rating, Corn: 20
Ragweed [6]
  Ragweed plant response rating: 0
  Plant response rating, Ragweed: 40
Kochia [7]
  Kochia plant response rating: 80
  Plant response rating, Kochia: 100
ducksalad
  Plant response rating, Ducksalad: 35
barnyardgrass
  Plant response rating, Barnyardgrass: 20
horseweed
  Horseweed plant response rating: 0
  Plant response rating, Horseweed: 10
pigweed, palmer [8]; [23]
  Plant response rating, Pigweed, Palmer: 90
pigweed, palmer [8]; [24]
  Plant response rating, Pigweed, Palmer: 100
ryegrass, Italian [9]
  Ryegrass, Italian plant response rating: 50
  Plant response rating, Ryegrass, Italian: 60
foxtail, giant [10]
  Foxtail, Giant plant response rating: 90
  Plant response rating, Foxtail, Giant: 90
Corn [11]
  Corn plant response rating: 10
  Plant response rating, Corn: 80
Kochia [12]; [23]
  Plant response rating, Kochia: 50
Kochia [12]; [24]
  Plant response rating, Kochia: 90
sedge, umbrella
  Plant response rating, Sedge, Umbrella: 100
pigweed, palmer [13]
  Pigweed, Palmer plant response rating: 90
  Plant response rating, Pigweed, Palmer: 100
Wheat [14]
  Wheat plant response rating: 10
  Plant response rating, Wheat: 30
galium
  Galium plant response rating: 100
  Plant response rating, Galium: 100
oat, wild [15]
  Oat, Wild plant response rating: 30
  Plant response rating, Oat, Wild: 80
Soybean [16]
  Soybean plant response rating: 100
  Plant response rating, Soybean: 100
Blackgrass [17]; [23]
  Plant response rating, Blackgrass: 50
Blackgrass [17]; [24]
  Plant response rating, Blackgrass: 80
Goosegrass [18]
  Goosegrass plant response rating: 70
  Plant response rating, Goosegrass: 100
Wheat [19]; [23]
  Plant response rating, Wheat: 0
Wheat [19]; [24]
  Plant response rating, Wheat: 0
Soybean [20]; [23]
  Plant response rating, Soybean: 30
Soybean [20]; [24]
  Plant response rating, Soybean: 60
oat, wild [21]; [23]
  Plant response rating, Oat, Wild: 40
oat, wild [21]; [24]
  Plant response rating, Oat, Wild: 40
Goosegrass [22]; [23]
  Plant response rating, Goosegrass: 100
Goosegrass [22]; [24]
  Plant response rating, Goosegrass: 100

— US20260262643A1, “HERBICIDAL BENZOXAZINES” (FMC CORPORATION, priority 2022, published 2026)
